The values below come from patent publication US8420335B2, “Inhibition of GASC1” (Kobenhavns Universitet, priority 2006, dated 2013).

The subject of assay [1] is KYSE-450 cells. In words: Quercetin treatment of KYSE-450 cells: H3K9me3, senescent-like phenotype, growth. The note with it: KYSE-450, low/moderate GASC1 level. It is filed as cell-based, human. The source says:
(§1) The biological effects of quercetin have previously been attributed to inhibition of topoisomerase I^43, modulation of protein and lipid kinase signalling pathways^44 and scavenging of reactive oxygen species^45, In light of the present findings it is tempting to speculate that the anti-cancer effect of quercetin might at least partially by explained by its inhibitory effect on GASC1 and other members of the JMJD2 subfamily.

The test system of assay [2] is KYSE-150 cells. In words: Overnight quercetin treatment of KYSE-150 cells: H3K9me3 by immunofluorescence and western blotting, growth, senescence. It is filed as cell-based, human. For orientation: A western blot detects proteins with antibodies after separation by electrophoresis.
Assay [3] relates to U2OS. As to the kind of experiment: Quercetin treatment of U2OS cells: H3K9me3, senescent-like phenotype, growth. It is filed as cell-based, human. To be noted: low/moderate GASC1 level.
Assay [4] relates to WI38. In words: Quercetin treatment of WI38 cells: H3K9me3, senescent-like phenotype, growth. It is filed as cell-based. To be noted: WI38, low/moderate GASC1 level.
Excerpt: as §1

For assay [5], the target named is T1, GASC1 (Homo sapiens, UniProt Q9H3R0).
T1 construct: Full-length amino-terminally hexahistidine-tagged human GASC1 baculovirus transfer vector; made in house; host or cells: baculovirus-infected insect cells (pAcHLT-A transfer vector, Bakpak6)
T1 sequence (Q9H3R0 1-1056): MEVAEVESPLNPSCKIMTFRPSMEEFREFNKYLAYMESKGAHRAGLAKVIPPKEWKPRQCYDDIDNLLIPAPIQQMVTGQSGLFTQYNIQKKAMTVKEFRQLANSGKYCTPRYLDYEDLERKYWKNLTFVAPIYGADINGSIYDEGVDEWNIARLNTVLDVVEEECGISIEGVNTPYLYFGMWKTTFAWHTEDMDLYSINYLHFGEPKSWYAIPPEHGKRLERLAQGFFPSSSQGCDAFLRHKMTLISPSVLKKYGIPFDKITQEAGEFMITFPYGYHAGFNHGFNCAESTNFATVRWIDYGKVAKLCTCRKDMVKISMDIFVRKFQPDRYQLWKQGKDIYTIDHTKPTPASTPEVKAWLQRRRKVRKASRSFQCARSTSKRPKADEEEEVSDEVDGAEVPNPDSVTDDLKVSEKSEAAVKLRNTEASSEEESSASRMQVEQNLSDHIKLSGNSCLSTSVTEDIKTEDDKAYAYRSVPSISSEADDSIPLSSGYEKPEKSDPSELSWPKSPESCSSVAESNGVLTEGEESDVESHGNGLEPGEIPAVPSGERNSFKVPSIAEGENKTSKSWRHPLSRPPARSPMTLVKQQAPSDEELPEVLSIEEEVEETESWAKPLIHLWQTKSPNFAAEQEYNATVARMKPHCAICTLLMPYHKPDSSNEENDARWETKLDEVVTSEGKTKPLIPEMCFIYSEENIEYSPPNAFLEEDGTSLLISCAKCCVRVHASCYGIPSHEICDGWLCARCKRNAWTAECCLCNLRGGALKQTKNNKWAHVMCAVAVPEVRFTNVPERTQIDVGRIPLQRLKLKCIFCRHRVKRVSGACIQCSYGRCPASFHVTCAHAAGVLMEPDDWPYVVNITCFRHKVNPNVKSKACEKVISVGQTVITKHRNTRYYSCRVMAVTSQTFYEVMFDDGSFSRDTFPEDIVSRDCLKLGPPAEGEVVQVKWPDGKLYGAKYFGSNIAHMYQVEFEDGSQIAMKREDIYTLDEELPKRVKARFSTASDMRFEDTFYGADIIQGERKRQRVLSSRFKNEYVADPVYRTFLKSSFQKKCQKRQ
As to the kind of experiment: Demethylation assay: recombinant His-GASC1 with bulk histones or H3K9me3 peptide, western blotting. It is filed as biochemical.

Where [6] appears, read: His-GASC1, bulk histones, co-factors FeSO4 and α-ketoglutarate, 30 min at 37° C., western blotting.

Each structure is given as a SMILES string. Entries after “also recorded” stand apart in the source; their conditions may differ. Where two headings read alike, the source gives them in different places.

Regarding `O=c1c(O)c(-c2ccc(O)c(O)c2)oc2cc(O)cc(O)c12` [quercetin], the “H3K9me3 increase, senescent-like phenotype and growth inhibition compared with KYSE-150” value in assay [1] was “did not display the same increase in H3K9me3 nor the same senescent-like phenotype and growth inhibition”; in assay [3] it was “did not display the same increase in H3K9me3 nor the same senescent-like phenotype and growth inhibition”; in assay [4], “did not display the same increase in H3K9me3 nor the same senescent-like phenotype and growth inhibition”. In addition, in assay [2] (data not shown), the growth rate result is reported as “marked decrease of growth rate”. In assay [2] (data not shown), the “phenotype (cell morphology, SAHFs, β-gal staining)” value is on record as “senescent-like phenotype”. Besides, the H3K9 trimethylation entry in assay [2] (immunofluorescence and western blotting) is “staggering increase in H3K9 trimethylation”. In addition, the “inhibition of GASC1-mediated demethylation of H3K9me3” value (“inhibition … of H3K9me3” for short) was “able to effectively inhibit GASC1-mediated demethylation of H3K9me3 in vitro” in assay [5] (setting [6]); “able to inhibit the demethylation reaction effectively” in assay [5] (His-GASC1, bulk histones, co-factors FeSO4 and α-ketoglutarate, 30 min at 37° C., western blotting, listed as quercetine).
Turning to `O=C(O)CN(CCN(CC(=O)O)CC(=O)O)CC(=O)O` [EDTA], the “GASC1 demethylation of H3K9me3 in the presence of EDTA” value in assay [5] (EDTA (chelating iron), 30 min at 37° C., western blotting) is “significantly reduced”.
As to `O=C(O)CNC(=O)C(=O)O` [N-oxalylglycine], the “inhibition … of H3K9me3” value in assay [5] (setting [6]) is listed as “able to inhibit the demethylation reaction effectively”.
On the same count and under the same terms, to `O=S(=O)([O-])[O-].[Ni+2]` [NiSO4] belongs “inhibit GASC1 demethylation activity; also recorded: able to inhibit the demethylation reaction effectively”.
On to `[Cl-].[Cl-].[Co+2]` [CoCl2], for which the “inhibition … of H3K9me3” value in assay [5] is recorded as “inhibit GASC1 demethylation activity; also recorded: able to inhibit the demethylation reaction effectively”.
